molecular target: T1, F508del (Homo sapiens, UniProt P13569, DEL508-508); assay: Protocol 1: membrane potential optical assay (FLIPR III, voltage sensing dye), identification of potentiator compounds; assay type: cell-based; settings: Table 3, compounds of Table 1
T1 construct: expressed in transfected cells
Outline: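 NIH 3T3 fibroblasts stably expressing F508del were cultured at 27° C for 24 hrs for temperature correction, then treated with compounds or DMSO and loaded with a voltage-sensing redistribution dye. Forskolin added with a Cl⁻ gradient activated the channel; membrane-potential fluorescence on FLIPR III reported increased gating.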

T1 sequence (P13569 with tags, fused parts or gaps DEL508-508): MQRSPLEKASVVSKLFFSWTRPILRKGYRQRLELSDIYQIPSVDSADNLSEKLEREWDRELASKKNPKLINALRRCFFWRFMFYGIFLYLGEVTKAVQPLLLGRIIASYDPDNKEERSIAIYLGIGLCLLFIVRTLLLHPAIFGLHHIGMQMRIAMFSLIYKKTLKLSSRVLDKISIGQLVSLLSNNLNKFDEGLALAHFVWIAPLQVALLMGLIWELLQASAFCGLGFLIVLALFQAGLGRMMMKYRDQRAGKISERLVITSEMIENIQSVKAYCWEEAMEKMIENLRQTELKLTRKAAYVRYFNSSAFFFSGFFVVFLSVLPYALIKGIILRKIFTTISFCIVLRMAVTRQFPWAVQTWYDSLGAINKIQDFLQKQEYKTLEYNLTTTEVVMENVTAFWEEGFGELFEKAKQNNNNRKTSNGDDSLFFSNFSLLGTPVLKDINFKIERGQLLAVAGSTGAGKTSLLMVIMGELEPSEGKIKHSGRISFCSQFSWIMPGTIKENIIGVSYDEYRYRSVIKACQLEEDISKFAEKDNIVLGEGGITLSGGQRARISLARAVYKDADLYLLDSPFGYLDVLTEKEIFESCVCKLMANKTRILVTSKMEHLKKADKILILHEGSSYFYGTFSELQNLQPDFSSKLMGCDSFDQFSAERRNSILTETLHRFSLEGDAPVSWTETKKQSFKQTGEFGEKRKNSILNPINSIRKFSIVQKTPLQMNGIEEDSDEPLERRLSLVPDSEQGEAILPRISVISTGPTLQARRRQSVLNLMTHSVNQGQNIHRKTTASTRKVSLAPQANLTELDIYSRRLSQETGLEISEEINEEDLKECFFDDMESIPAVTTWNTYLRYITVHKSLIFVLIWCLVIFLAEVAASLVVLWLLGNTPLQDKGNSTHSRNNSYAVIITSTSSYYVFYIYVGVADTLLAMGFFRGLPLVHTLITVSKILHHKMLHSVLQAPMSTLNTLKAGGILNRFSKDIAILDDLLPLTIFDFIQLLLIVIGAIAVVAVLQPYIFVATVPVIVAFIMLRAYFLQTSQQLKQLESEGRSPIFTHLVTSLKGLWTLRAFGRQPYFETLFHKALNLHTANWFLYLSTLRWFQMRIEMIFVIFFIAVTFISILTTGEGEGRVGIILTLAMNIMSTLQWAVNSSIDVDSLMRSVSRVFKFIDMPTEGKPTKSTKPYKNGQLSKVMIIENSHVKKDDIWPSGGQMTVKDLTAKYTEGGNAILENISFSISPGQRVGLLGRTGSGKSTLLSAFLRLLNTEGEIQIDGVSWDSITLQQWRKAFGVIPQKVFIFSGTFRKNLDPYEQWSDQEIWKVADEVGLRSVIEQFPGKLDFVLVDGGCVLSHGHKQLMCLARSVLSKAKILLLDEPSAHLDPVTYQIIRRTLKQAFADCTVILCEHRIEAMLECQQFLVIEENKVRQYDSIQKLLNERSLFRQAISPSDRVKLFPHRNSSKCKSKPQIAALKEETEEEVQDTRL

| EC30 | SMILES |
| --- | --- |
| +++ (“+++” means <3 uM) | CCOc1ccc(-c2ccc(C(=O)NS(=O)(=O)c3nccnc3N)c(Oc3c(C)cc(C)cc3C)n2)cc1 [Compound 1019, N-(3-aminopyrazin-2-yl)sulfonyl-6-(4-ethoxyphenyl)-2-(2,4,6-trimethylphenoxy)pyridine-3-carboxamide] |
| ++ (“++” means between 3 uM and 10 uM) | CC(C)Oc1ccc(-c2ccc(C(=O)NS(=O)(=O)c3cccc(N)n3)c(NCc3ccccc3)n2)cn1 [Compound 1026, N-[(6-amino-2-pyridyl)sulfonyl]-2-(benzylamino)-6-(6-isopropoxy-3-pyridyl)pyridine-3-carboxamide] |
| +++ (“+++” means <3 uM) | CC(C)c1ccccc1Oc1nc(C(C)(C)C)ccc1C(=O)NS(=O)(=O)c1cccc(N)n1 [Compound 1031, N-[(6-amino-2-pyridyl)sulfonyl]-6-tert-butyl-2-(2-isopropylphenoxy)pyridine-3-carboxamide] |
| +++ (“+++” means <3 uM) | CNc1cccc(S(=O)(=O)NC(=O)c2ccc(-c3ccccc3)nc2Oc2c(C)cc(C)cc2C)n1 [Compound 1032, N-[[6-(methylamino)-2-pyridyl]sulfonyl]-6-phenyl-2-(2,4,6-trimethylphenoxy)pyridine-3-carboxamide] |
| +++ (“+++” means <3 uM) | COc1ccc(-c2ccc(C(=O)NS(=O)(=O)c3cc[nH]n3)c(Oc3c(C)cc(C)cc3C)n2)cc1 [Compound 1033, 6-(4-methoxyphenyl)-N-(1H-pyrazol-3-ylsulfonyl)-2-(2,4,6-trimethylphenoxy)pyridine-3-carboxamide] |
| +++ (“+++” means <3 uM) | Cc1ccc(-c2ccc(C(=O)NS(=O)(=O)c3cccc(N)n3)c(Oc3c(C)cc(C)cc3C)n2)cc1 [Compound 1035, N-[(6-amino-2-pyridyl)sulfonyl]-6-(p-tolyl)-2-(2,4,6-trimethylphenoxy)pyridine-3-carboxamide] |
| + (“+” means greater than 10 uM) | Cc1ccccc1-c1nc(C(C)(C)C)ccc1C(=O)NS(=O)(=O)c1cccc(N)c1 [Compound 1036, N-(3-aminophenyl)sulfonyl-6-tert-butyl-2-(o-tolyl)pyridine-3-carboxamide] |
| ++ (“++” means between 3 uM and 10 uM) | CC1CCN(c2nc(C(C)(C)C)ccc2C(=O)NS(=O)(=O)c2ccc(N)cc2)CC1 [Compound 1037, N-(4-aminophenyl)sulfonyl-6-tert-butyl-2-(4-methyl-1-piperidyl)pyridine-3-carboxamide] |
| ++ (“++” means between 3 uM and 10 uM) | CC(C)(C)c1ccc(C(=O)NS(=O)(=O)c2cccc(N)n2)c(N2CCC(C(C)(C)O)CC2)n1 [Compound 1038, N-[(6-amino-2-pyridyl)sulfonyl]-6-tert-butyl-2-[4-(1-hydroxy-1-methyl-ethyl)-1-piperidyl]pyridine-3-carboxamide] |

Second part, the compound before the results:

| SMILES | EC30 |
| --- | --- |
| CC(C)COc1ccc(-c2ccc(C(=O)NS(=O)(=O)c3ccc[nH]c3=O)c(N3CCC(C)CC3)n2)cc1 [Compound 1017, 6-(4-isobutoxyphenyl)-2-(4-methyl-1-piperidyl)-N-[(2-oxo-1H-pyridin-3-yl)sulfonyl]pyridine-3-carboxamide] | ++ (“++” means between 3 uM and 10 uM) |
| Cc1cc(C)c(Oc2nc(C)ccc2C(=O)NS(=O)(=O)c2cccc(N3CCN(C)CC3)n2)c(C)c1 [Compound 1018, 6-methyl-N-[[6-(4-methylpiperazin-1-yl)-2-pyridyl]sulfonyl]-2-(2,4,6-trimethylphenoxy)pyridine-3-carboxamide] | ++ (“++” means between 3 uM and 10 uM) |
| CC1CN(c2nc(-c3ccc(OC(C)C)cc3)ccc2C(=O)NS(=O)(=O)c2cccc(N)n2)C(C)(C)C1 (stereo not shown) [Compound 1020, N-[(6-amino-2-pyridyl)sulfonyl]-6-(4-isopropoxyphenyl)-2-(2,2,4-trimethylpyrrolidin-1-yl)pyridine-3-carboxamide] | +++ (“+++” means <3 uM) |
| CC(C)COc1cc(-c2ccc(C(=O)NS(=O)(=O)c3cccc(N)n3)c(N3CC(C)CC3(C)C)n2)ccc1Cl (stereo not shown) [Compound 1021, N-[(6-amino-2-pyridyl)sulfonyl]-6-(4-chloro-3-isobutoxy-phenyl)-2-(2,2,4-trimethylpyrrolidin-1-yl)pyridine-3-carboxamide] | +++ (“+++” means <3 uM) |
| CCCOc1ccc(-c2ccc(C(=O)NS(=O)(=O)c3ccc[nH]c3=O)c(Oc3c(C)cc(C)cc3C)n2)cc1F [Compound 1022, 6-(3-fluoro-4-propoxy-phenyl)-N-[(2-oxo-1H-pyridin-3-yl)sulfonyl]-2-(2,4,6-trimethylphenoxy)pyridine-3-carboxamide] | ++ (“++” means between 3 uM and 10 uM) |
| CCC1CCCN(c2nc(-c3ccc(OC(C)C)nc3)ccc2C(=O)NS(=O)(=O)c2cccc(N)n2)C1 (stereo not shown) [Compound 1023, N-[(6-amino-2-pyridyl)sulfonyl]-2-(3-ethyl-1-piperidyl)-6-(6-isopropoxy-3-pyridyl)pyridine-3-carboxamide] | +++ (“+++” means <3 uM) |
| COc1ccc(-c2cc(C(=O)NS(=O)(=O)c3cccc(N)c3)n(C(C)c3ccccc3)n2)cc1 (stereo not shown) [Compound 1024, N-(3-aminophenyl)sulfonyl-5-(4-methoxyphenyl)-2-(1-phenylethyl)pyrazole-3-carboxamide] | ++ (“++” means between 3 uM and 10 uM) |
| CC(C)Oc1ccc(-c2ccc(C(=O)NS(=O)(=O)c3cccc(N)n3)c(N(C)C3CCCC3)n2)cn1 [Compound 1025, N-[(6-amino-2-pyridyl)sulfonyl]-2-[cyclopentyl(methyl)amino]-6-(6-isopropoxy-3-pyridyl)pyridine-3-carboxamide] | +++ (“+++” means <3 uM) |
| Cc1cc(C)c(Oc2nc(-c3ccccc3)ccc2C(=O)NS(=O)(=O)c2cccc(NCCN)n2)c(C)c1 [Compound 1027, N-[[6-(2-aminoethylamino)-2-pyridyl]sulfonyl]-6-phenyl-2-(2,4,6-trimethylphenoxy)pyridine-3-carboxamide] | ++ (“++” means between 3 uM and 10 uM) |
| COCC1CCCN(c2nc(-c3cc(F)cc(OCC(C)C)c3)ccc2C(=O)NS(=O)(=O)c2ccn[nH]2)C1 (stereo not shown) [Compound 1028, 6-(3-fluoro-5-isobutoxy-phenyl)-2-[3-(methoxymethyl)-1-piperidyl]-N-(1H-pyrazol-5-ylsulfonyl)pyridine-3-carboxamide] | ++ (“++” means between 3 uM and 10 uM) |
| C[C@@H]1CC[C@H](C)N1c1nc(-c2ccc(F)cc2)ccc1C(=O)NS(=O)(=O)c1cccc(N)n1 [Compound 1029, N-[(6-amino-2-pyridyl)sulfonyl]-2-[(2S,5R)-2,5-dimethylpyrrolidin-1-yl]-6-(4-fluorophenyl)pyridine-3-carboxamide] | ++ (“++” means between 3 uM and 10 uM) |
| CCC1CCN(c2nc(-c3cc(F)cc(OCC(C)C)c3)ccc2C(=O)NS(=O)(=O)c2ccn[nH]2)CC1 [Compound 1030, 2-(4-ethyl-1-piperidyl)-6-(3-fluoro-5-isobutoxy-phenyl)-N-(1H-pyrazol-5-ylsulfonyl)pyridine-3-carboxamide] | +++ (“+++” means <3 uM) |
| COc1cccc(-c2ccc(C(=O)NS(=O)(=O)c3cccc(N)n3)c(Oc3c(C)cc(C)cc3C)n2)n1 [Compound 1034, N-[(6-amino-2-pyridyl)sulfonyl]-6-(6-methoxy-2-pyridyl)-2-(2,4,6-trimethylphenoxy)pyridine-3-carboxamide] | +++ (“+++” means <3 uM) |
